Results published in US9212135B2, “Phenylthioacetate compounds, compositions and methods of use” (Ardea Biosciences, Inc., priority 2010, dated 2015).

biological target: T1, URAT1 (Homo sapiens, UniProt Q96S37); experiment: URAT1-model assay (14C-uric acid transport in HEK293/URAT1-model cells); conditions: 125 μM 14C-uric acid, 10 minutes at room temperature, read-out: URAT-1 model cell-based C14 EC50 Ranking
T1 sequence (Q96S37 1-553): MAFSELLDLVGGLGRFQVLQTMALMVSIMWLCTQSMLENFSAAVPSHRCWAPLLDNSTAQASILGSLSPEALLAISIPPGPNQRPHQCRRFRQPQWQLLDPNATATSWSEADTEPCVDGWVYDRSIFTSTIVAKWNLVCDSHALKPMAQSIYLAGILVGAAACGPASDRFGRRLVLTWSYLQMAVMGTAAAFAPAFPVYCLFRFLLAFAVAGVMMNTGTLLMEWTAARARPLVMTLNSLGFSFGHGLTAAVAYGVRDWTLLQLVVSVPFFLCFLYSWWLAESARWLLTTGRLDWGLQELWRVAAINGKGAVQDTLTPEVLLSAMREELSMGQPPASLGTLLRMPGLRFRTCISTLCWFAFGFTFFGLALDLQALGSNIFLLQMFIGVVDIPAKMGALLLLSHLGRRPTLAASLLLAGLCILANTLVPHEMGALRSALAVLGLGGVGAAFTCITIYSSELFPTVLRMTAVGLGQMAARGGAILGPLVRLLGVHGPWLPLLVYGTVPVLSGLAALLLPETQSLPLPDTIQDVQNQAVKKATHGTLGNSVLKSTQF
Protocol: HEK293 human embryonic kidney cells (ATCC# CRL-1573) were propagated in EMEM tissue culture medium as described by ATCC in an atmosphere of 5% CO2 and 95% air. Transfections of HEK293 cells with a model URAT1 construct was performed using L2000 transfection reagent (Invitrogen) as described by the manufacturer. After 24 h the transfected cells were split into 10 cm tissue culture plates and grown for 1 day after which the medium was replaced with fresh growth medium containing G418 (Gibco) at 0.5 mg/ml final concentration. Drug-resistant colonies were selected after approximately 8 days and then tested for ^14C-uric acid transport activity. The HEK293/URAT1-model cells are plated on Poly-D-Lysine Coated 96-well Plates at a density of 125,000 cells per well.
Cells were grown overnight (20-26 hours) at 37° C. in an incubator. Plates were allowed to come to room temperature and media was washed out with one wash of 250 μl of Wash Buffer (125 mM Na Gluconate, 10 mM Hepes ph 7.3). Compound or vehicle is added in assay buffer with ^14C-Uric Acid for a final concentration of 125 μM Uric Acid with a specific activity of 54 mCi/mmol. Assay Buffer is 125 mM Sodium Gluconate, 4.8 mM Potassium Gluconate, 1.2 mM Potassium phosphate, monobasic, 1.2 mM magnesium sulfate, 1.3 mM Ca Gluconate, 5.6 mM Glucose, 25 mM HEPES, pH 7.3. Plates were incubated at room temperature for 10 minutes then washed 3 times with 50 μl Wash Buffer and 3 times with 250 μl Wash Buffer. Microscint 20 Scintillation Fluid was added and plates were incubated overnight at room temperature to equilibrate. Plates are then read on the TopCount Plate Reader and an EC50 value generated. (See Enomoto et al, Nature, 2002, 417, 447-451 and Anzai et al, J. Biol. Chem., 2004, 279, 45942-45950.)
Compounds as described herein were tested according to the protocol described above for the URAT-1 model assay; the results are shown in the table below wherein: […]

Compound	EC50 [nM]
N#Cc1ccc(-c2ccccc2SC2(C(=O)O)CCC2)cc1 [Example 1D]	1 to 50
N#Cc1ccc(-c2cc(F)ccc2SC2(C(=O)O)CCC2)cc1 [Example 1G]	1 to 50
O=C(O)C1(Sc2ccc(F)cc2-c2ccc(C3CC3)cc2)CCC1 [Example 1F]	500 to 10000
CC(C)(Sc1ccccc1-c1ccc(CO)cc1)C(=O)O [Example 1C]	50 to 500
O=C(O)C1(Sc2ccccc2-c2ccc(CO)cc2)CCC1 [Example 1E]	50 to 500
CC(C)(Sc1ccccc1-c1ccc(C(N)=O)cc1)C(=O)O [Example 1B]	500 to 10000
